From ChEMBL document CHEMBL6177962, “Design, synthesis and biological evaluation of 2-arylbenzo[b]furan-4-vinylcarbonyl derivatives based on Salvianolic acid C as antioxidant neuroprotective agents for the treatment of ischemic stroke” (Eur J Med Chem, 2025)
Activity calls are given as the source filed them. The calls are words filed in the database; no cut-off is given here.

Legend:
[1] = Metabolic stability in rat liver microsome assessed as parent compound remaining after 60 mins; type: ADME; conditions: liver microsomes, read-out: Stability
[2] = Permeability of the compound across blood brain barrier in mouse BEND3 cells at 10 uM incubated for 24 to 48 hrs by HPLC analysis; type: ADME, cell-based; conditions: time 24-48 hrs, read-out: permeability
[3] = tested on: Rattus norvegicus; assay: […] of HO-1 level rat model at 5 to 20 mg/kg, iv by Western blot analysis; type: functional, organism-based; conditions: dose 5-20 mg/kg
[4] = tested on: PC-12; assay: Neuroprotective activity against t-BHP induced oxidative damage in rat PC12 cells model assessed as increase in NRF2 level incubated for 24 hrs by Western blot analysis; type: functional, cell-based; conditions: dose 2.5-10 µM
[5] = tested on: Rattus norvegicus; assay: In vivo activation of Nrf2 pathway in MCAO induced rat model assessed as increase in NRF2 level in brain at 5 to 20 mg/kg, iv by immunofluorescence analysis; type: functional, organism-based; conditions: dose 5-20 mg/kg
[6] = tested on: Rattus norvegicus; assay: Neuroprotective activity against cerebral ischemia-reperfusion injury in MCAO rat model assessed as decrease in apoptotic cells in cerebral brain at 20 mg/kg, iv treated after 2 hrs ischemia followed by reperfusion measured after 1 week of post-reperfusion by TUNEL staining based analysis; type: functional, organism-based; conditions: time 1.0 weeks
[7] = tested on: Rattus norvegicus; assay: In vivo activation of Nrf2 pathway in MCAO induced rat model assessed as increase in NRF2 level in nucleus at 5 to 20 mg/kg, iv by Western blot analysis; type: functional, organism-based; conditions: dose 5-20 mg/kg
[8] = tested on: Rattus norvegicus; assay: Neuroprotective activity against cerebral ischemia-reperfusion injury in MCAO rat model at 10 mg/kg, iv treated after 2 hrs ischemia followed by reperfusion measured after 1 week of post-reperfusion by barnes maze test; type: functional, organism-based; conditions: time 1.0 weeks
[9] = tested on: Rattus norvegicus; assay: Upregulation of NRF2 level in MCAO rat model at 5 to 20 mg/kg, iv by Western blot analysis; type: functional, organism-based; conditions: dose 5-20 mg/kg
[10] = tested on: PC-12; assay: Neuroprotective activity against t-BHP induced oxidative damage in rat PC12 cells model assessed as reduction in intracellular ROS level at 2.5 to 10 uM incubated for 24 hrs by DCFH-DA probe based flow cytometry analysis; type: functional, cell-based; conditions: dose 2.5-10 µM
[11] = tested on: PC-12; assay: Neuroprotective activity against t-BHP induced oxidative damage in rat PC12 cells model assessed as cell viability at 10 uM incubated for 24 hrs by CCK-8 assay relative to control; type: functional; conditions: read-out: Activity
[12] = tested on: PC-12; assay: Neuroprotective activity against t-BHP induced oxidative damage in rat PC12 cells model assessed as attenuation of intracellular ROS level at 2.5 uM incubated for 24 hrs by DCFH-DA probe based analysis; type: functional, cell-based
[13] = tested on: PC-12; assay: Cytotoxicity against rat PC12 cells assessed as cell viability at 40 uM incubated for 24 hrs by CCK-8 assay relative to control; type: functional; conditions: read-out: Activity
[14] = tested on: PC-12; assay: Neuroprotective activity against t-BHP induced oxidative damage in rat PC12 cells model assessed as decrease in MDA level at 5 uM incubated for 24 hrs; type: functional, cell-based
[15] = tested on: Rattus norvegicus; assay: Neuroprotective activity against cerebral ischemia-reperfusion injury in MCAO rat model assessed as reduction in infarct area at 5 to 20 mg/kg, iv treated after 2 hrs ischemia followed by reperfusion measured after 1 week of post-reperfusion by TTC staining based analysis; type: functional, organism-based; conditions: dose 5-20 mg/kg, time 1.0 weeks
[16] = tested on: PC-12; assay: Neuroprotective activity against t-BHP induced oxidative damage in rat PC12 cells model assessed as decrease in MDA level at 10 uM incubated for 24 hrs; type: functional, cell-based
[17] = tested on: PC-12; assay: Neuroprotective activity against t-BHP induced oxidative damage in rat PC12 cells model assessed as increase in SOD activity at 10 uM incubated for 24 hrs; type: functional, cell-based
[18] = tested on: Rattus norvegicus; assay: Neuroprotective activity against cerebral ischemia-reperfusion injury in MCAO rat model assessed as reduction in infarct area at 20 mg/kg, iv treated after 2 hrs ischemia followed by reperfusion measured after 1 week of post-reperfusion by TTC staining based analysis; type: functional, organism-based; conditions: time 1.0 weeks
[19] = tested on: Rattus norvegicus; assay: In vivo activation of Nrf2 pathway in MCAO induced rat model assessed as increase in NRF2 level in cytoplasm at 5 to 20 mg/kg, iv by Western blot analysis; type: functional, organism-based; conditions: dose 5-20 mg/kg
[20] = tested on: Rattus norvegicus; assay: Neuroprotective activity against cerebral ischemia-reperfusion injury in MCAO rat model assessed as decrease in apoptotic cells in cerebral brain at 5 mg/kg, iv treated after 2 hrs ischemia followed by reperfusion measured after 1 week of post-reperfusion by TUNEL staining based analysis; type: functional, organism-based; conditions: time 1.0 weeks
[21] = tested on: PC-12; assay: Neuroprotective activity against t-BHP induced oxidative damage in rat PC12 cells model assessed as decrease in MDA level at 2.5 uM incubated for 24 hrs; type: functional, cell-based
[22] = tested on: PC-12; assay: Neuroprotective activity against t-BHP induced oxidative damage in rat PC12 cells model assessed as increase in SOD activity at 5 uM incubated for 24 hrs; type: functional, cell-based
[23] = tested on: PC-12; assay: Neuroprotective activity against t-BHP induced oxidative damage in rat PC12 cells model assessed as increase in SOD activity at 2.5 uM incubated for 24 hrs; type: functional, cell-based
[24] = tested on: PC-12; assay: Downregulation of KEAP1 expression in rat PC12 cells at 10 uM incubated for 3 hrs by Western blot analysis; type: functional, cell-based
[25] = target: Kelch-like ECH-associated protein 1 (Rattus norvegicus) (UniProt P57790); assay: Binding affinity to KEAP1 in rat PC12 cells assessed as thermal stabilization at 10 uM incubated for 3 hrs at 4 degreeC by CETSA; type: cell-based
[26] = tested on: Rattus norvegicus; assay: Neuroprotective activity against cerebral ischemia-reperfusion injury in MCAO rat model assessed as decrease in apoptotic cells in cerebral brain at 10 mg/kg, iv treated after 2 hrs ischemia followed by reperfusion measured after 1 week of post-reperfusion by TUNEL staining based analysis; type: functional, organism-based; conditions: time 1.0 weeks
[27] = tested on: PC-12; assay: Neuroprotective activity against t-BHP induced oxidative damage in rat PC12 cells model assessed as cell viability at 2.5 to 20 uM incubated for 24 hrs by CCK-8 assay; type: functional, cell-based; conditions: dose 2.5-20 µM
[28] = tested on: PC-12; assay: Antioxidant activity in t-BHP -induced rat PC12 cells at 2.5 to 20 uM; type: functional, cell-based; conditions: dose 2.5-20 µM
[29] = tested on: PC-12; assay: Cytotoxicity against rat PC12 cells assessed as cell viability at 10 uM incubated for 24 hrs by CCK-8 assay relative to control; type: functional; conditions: read-out: Activity
[30] = tested on: Rattus norvegicus; assay: Neuroprotective activity against cerebral ischemia-reperfusion injury in MCAO rat model assessed as reduction in ROS accumulation in cortex at 5 to 20 mg/kg, iv treated after 2 hrs ischemia followed by reperfusion measured after 1 week of post-reperfusion by dihydroethidium staining based fluorescence microscopic analysis; type: functional, organism-based; conditions: dose 5-20 mg/kg, time 1.0 weeks
[31] = tested on: PC-12; assay: Neuroprotective activity against t-BHP induced oxidative damage in rat PC12 cells model assessed as reduction in intracellular ROS level at 10 uM incubated for 24 hrs by DCFH-DA probe based analysis; type: functional, cell-based
[32] = tested on: PC-12; assay: Neuroprotective activity against t-BHP induced oxidative damage in rat PC12 cells model assessed as increase in HO-1 level incubated for 24 hrs by Western blot analysis; type: functional, cell-based; conditions: dose 2.5-10 µM
[33] = tested on: PC-12; assay: Neuroprotective activity against t-BHP induced oxidative damage in rat PC12 cells model assessed as attenuation of intracellular ROS level at 5 uM incubated for 24 hrs by DCFH-DA probe based analysis; type: functional, cell-based

Sequence of Kelch-like ECH-associated protein 1 (Rattus norvegicus) (P57790 whole entry, the tested form may be a part): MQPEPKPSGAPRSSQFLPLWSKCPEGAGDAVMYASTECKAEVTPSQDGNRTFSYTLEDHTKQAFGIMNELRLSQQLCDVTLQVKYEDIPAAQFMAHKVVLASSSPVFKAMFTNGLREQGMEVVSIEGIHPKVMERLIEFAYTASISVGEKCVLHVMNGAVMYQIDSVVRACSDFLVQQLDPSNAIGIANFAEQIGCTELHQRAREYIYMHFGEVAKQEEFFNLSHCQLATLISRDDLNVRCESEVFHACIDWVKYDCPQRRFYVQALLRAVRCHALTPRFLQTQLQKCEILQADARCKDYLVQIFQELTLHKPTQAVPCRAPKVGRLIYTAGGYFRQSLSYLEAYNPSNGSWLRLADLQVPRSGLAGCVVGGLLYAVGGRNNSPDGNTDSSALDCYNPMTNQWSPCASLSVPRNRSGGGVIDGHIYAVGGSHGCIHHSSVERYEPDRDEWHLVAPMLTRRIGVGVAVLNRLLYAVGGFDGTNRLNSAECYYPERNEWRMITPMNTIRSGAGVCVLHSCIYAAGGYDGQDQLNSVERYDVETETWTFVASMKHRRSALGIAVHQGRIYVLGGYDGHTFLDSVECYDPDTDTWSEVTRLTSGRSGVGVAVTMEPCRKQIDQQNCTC

Structure (SMILES): COc1ccc(/C=C/C(=O)c2ccc(O)c(O)c2)c2cc(-c3ccc(C)cc3)oc12
- remaining at 1 h [1]: 63.8%
- Papp at 10 µM [2]: 7.46 ×10⁻⁶ cm/s
- Activity [3]: Active
- Activity [4]: Dose-dependent-effect
- Activity [5]: Active
- Activity [6]: Active
- Activity [7]: inactive
- Activity [8]: Active
- Activity [9]: Active
- Activity [10]: Active
- viability at 10 µM [11]: 95%
- Activity [12]: Active
- viability at 40 µM [13]: 109%
- Activity [14]: Active
- Activity [15]: Active
- Activity [16]: Active
- Activity [17]: Active
- Activity [18]: Active
- Activity [19]: Active
- Activity [20]: Active
- Activity [21]: Active
- Activity [22]: Active
- Activity [23]: Active
- Activity [24]: Active
- Activity [25]: Active
- Activity [26]: Active
- Activity [27]: Active
- Activity [28]: Active
- viability at 10 µM [29]: 101%
- Activity [30]: Active
- Activity [31]: Active
- Activity [32]: Dose-dependent-effect
- Activity [33]: Active
